# According to a melting point compilation (Tetko et al.; mined from patent text by program, amines drawn as free bases though some values may be those of a salt):
row,Structure (SMILES),melting point
1,CC(Oc1ccc(-c2ccc(F)c(C#N)c2)cc1)C(O)CCc1cccnc1 (stereo not drawn),108 to 109 °C
2,OCc1ccc(-c2ccc(O)cc2)c(-c2ccc(O)cc2)c1,214 °C
3,CCCCc1cn(CC2OC(n3cnc4c(NCc5ccc(OC)cc5)ncnc43)C(O)C2O)nn1 (stereo not drawn),105 °C
4,CC(C)(C)OC(=O)N1CC=C(C#Cc2ccc3c(c2)NC(=O)CC(c2cccc(C#N)c2)=N3)CC1,239 °C
5,Cc1c(CO)sc2c(Br)cccc12,129 to 130 °C
6,COc1ccn2nc(SCc3ccccc3)nc2n1,126 to 128 °C
7,CN(C)C(=O)COc1ccc(I)cc1,63 to 65 °C
8,O=C1c2ccccc2C(=O)C1(CCN1CCC(c2noc3cc(F)ccc23)CC1)c1ccccc1,149 to 150 °C
9,COC(=O)CNC(=O)OC1c2ccccc2C(=O)N1c1ccc2ccc(Cl)nc2n1 (stereo not drawn),208 to 210 °C
10,Brc1cnn2c(-c3cccnc3)ccnc12,243 to 244 °C
11,COc1ccc(-n2c(-c3ccccc3)cc3c2CCCC3)cc1,132 to 133 °C
12,CC(=O)C(C(=O)c1ccc(Cl)cc1)C(=O)c1ccc(C(F)(F)F)cc1[N+](=O)[O-] (stereo not drawn),102 to 104 °C
13,Cc1nnc(-c2nsc3ccc([N+](=O)[O-])cc23)o1,> 250 °C
14,CC(C)CN1C(=O)c2cnc(-c3ccccc3)nc2Nc2ccccc21,203 to 204 °C
15,CCOC(=O)c1cc(Cl)n2nc(-c3ccccc3)cc2n1,135 to 137 °C
16,CC(=O)NC[C@H]1CN(c2ccc(N3CCC(=C(C#N)n4cncn4)CC3)c(F)c2)C(=O)O1,194 to 196 °C
17,CCCCCCCCCCCCc1c2c(=O)c3ccccc3c2c(CCCCCCCCCCCC)c2c(=O)c3ccccc3c12,123 to 124 °C
18,CCCCc1ccc(-c2ccc(CCc3ccc(OC)cc3)cc2)c(F)c1,49 °C
19,C=CCOc1nc(N)c2ccccc2n1,105 to 110 °C
20,Nc1sc2c(c1C(=O)c1ccc(Cl)cc1)CCSC2,142 to 146 °C
21,FC(F)c1cc(Cl)nc2c1cnn2C1CCCCO1 (stereo not drawn),93 °C
22,CCCCCCC(O)c1ccc2cc(OC)ccc2c1 (stereo not drawn),71 to 74 °C

row,Structure (SMILES),melting point
1,C#CC1(OC(C)=O)CCC2C3CCC4=CC(=O)CCC4C3C(C(F)F)CC21C (stereo not drawn),157 to 180 °C
2,COc1ccc(O)c(C2(CO)C(=O)N(CO)c3cccc(Br)c32)n1 (stereo not drawn),142 to 145 °C
3,COC1(NC(=O)c2ccccc2)CC1,190 to 191 °C
4,CCOC(=O)C1CCCN(CCC2CCc3cc(OCc4ccc(-c5ccccc5)cc4)ccc3C2)C1 (stereo not drawn),97 to 98 °C
5,CNc1nc(CSC)c(-c2ccncc2)s1,135 to 138 °C
6,CC12C=CCC=C1CCC1C2C(O)CC2(C)C(CCO)=CCC12 (stereo not drawn),213 to 215 °C
7,COc1ccc2c(c1)CC(C(N)=O)N2 (stereo not drawn),228 to 229 °C
8,CC(C)N1C(=O)c2ccccc2N(C(=O)c2cc(Oc3ccc(C(F)(F)F)cc3Cl)ccc2[N+](=O)[O-])S1(=O)=O,125 to 128 °C
9,Cc1cc(C)c(C2C(=O)OC3(CCN(N(C)C)CC3)C2=O)c(C)c1 (stereo not drawn),> 200 °C
10,COc1ccc(NC(=NC#N)NC(NC(=O)Cc2ccc(OC)c(OC)c2)C(C)(C)C)c(OC)n1 (stereo not drawn),162 to 163 °C
11,CNC1=Nc2ccc(C3=NNC(=O)CC3)cc2C1(C)C,320 to 324 °C
12,CC12C=CCC1C1CC=C3CC(O)CCC3(CO)C1CC2 (stereo not drawn),169 to 171 °C
13,Cc1nc(C)c(Cl)c(NCc2ccc(Oc3ccc4ncc([N+](=O)[O-])n4n3)c(O)c2)n1,> 114 °C
14,CCc1c(-c2ccc(OCc3ccccc3)cc2)c2cc(C(=O)O)c3c(NC(C)=O)ccc1n23,244 to 246 °C
15,COc1ccc2c(c1Br)C(=O)C(=O)N2,250 to 251 °C
16,CC1(C)OC(=S)Nc2ccc(-c3cccc(F)c3)cc21,194 to 195 °C
17,COCOc1cc(OC)c(OCOC)c(CCO)c1OC,121 to 123 °C
18,CCOC(=O)c1cc2cc(C)cc(C)c2[nH]1,141 to 143 °C
19,COc1cccc(CN2Cc3cc(OC)c(O)cc3C(O)C2)c1 (stereo not drawn),137 to 138 °C
20,c1ccc(-c2nc3n(c2-c2ccccn2)CCS3)nc1,142 to 143 °C
21,CCC1(CCCCCBr)C(=O)Nc2ccc(F)cc21 (stereo not drawn),82 to 83 °C
